# Values of other authors in patent publication US12673009B2, “Dental material” (King's College London, priority 2020, dated 2026).
# Tests used:
# [1] = Tylkowski et al., 2013
compound,measurement,setting,value
[Li] [lithium],safe therapeutic range of blood levels for patients on lithium therapies,,4.2-8.3 ppm
same,lithium concentration reported to be toxic,[1],~700 ppm
